Values quoted from earlier work in patent US20050158411A1, “Methods and apparatus to prevent, treat, and cure the symptoms of nauea caused by chemotherapy treatments of human cancers” (priority 2000, published 2005).
“Also recorded” adds a separate entry of the source.

Tests used:
[1] = test system: fungal infection of the toenails; details: after six months
[2] = test system: SARS virus growing in tissue cultures

For `Clc1ccccc1C(c1ccccc1)(c1ccccc1)n1ccnc1` [clotrimazole], the “effectiveness for fungal infection of the toenails” value [1] is listed as “equally effective”.

For `NC(=O)c1ncn([C@@H]2O[C@H](CO)[C@@H](O)[C@H]2O)n1` [ribavirin], the “effect against the SARS virus” value [2] is listed as “no evidence that the drug has any effect; also recorded: conclusively shown ineffective”.
